Laboratory results from patent US10383948B2, “Anti-cMet antibody drug conjugates and methods for their use” (AbbVie Inc., priority 2016, dated 2019).

Key:
[1] = system: NSCLC squamous cell carcinoma; test: Phase 1 overall response versus H score; type: in vivo, human; settings: three patients, 2.7 mg/kg once every 3 weeks, IHC scores between 150 to 224
Description: (§1) The IHC score was obtained using the protocol described in Example 17.

NSCLC adenocarcinoma = test: Phase 1 overall response versus H score; type: in vivo, human; settings: IHC scores of 225 or greater
Description: as §1

CTG-0363 NSCL PDX = test: Patient-derived xenograft, tumor growth delay; type: in vivo, NSG mice; settings: PDX CTG-0363 (NSCL); every seven days, six doses; median time to 1 cm^3 vs control
Protocol: (§2) Tumor fragments of 3 to 5 mm^3 at passage 3 (P3) were implanted subcutaneously in the right rear flank of NSG mice (The Jackson Laboratory) with a trochar. ABBV-399 and ABT-700 PBD were administered every seven days for a total of six doses. […] For all groups, tumor volumes were plotted only for the duration that allowed the full set of animal to remain on study. If animals had to be taken off study, the remaining animals were monitored for tumor growth until they reached defined end-points.

CTG-0084 colorectal PDX = test: Patient-derived xenograft, tumor growth delay; type: in vivo, NSG mice; settings: PDX CTG-0084 (Colorectal); every seven days, six doses; median time to 1 cm^3 vs control
Protocol: as §2

CTG-0159 NSCL PDX = test: Patient-derived xenograft, tumor growth delay; type: in vivo, NSG mice; settings: PDX CTG-0159 (NSCL); every seven days, six doses; median time to 1 cm^3 vs control
Protocol: as §2

CTG-0115 colorectal PDX = test: Patient-derived xenograft, tumor growth delay; type: in vivo, NSG mice; settings: PDX CTG-0115 (Colorectal); every seven days, six doses; median time to 1 cm^3 vs control
Protocol: as §2

CTG-0796 colorectal PDX = test: Patient-derived xenograft, tumor growth delay; type: in vivo, NSG mice; settings: PDX CTG-0796 (Colorectal); every seven days, six doses; median time to 1 cm^3 vs control
Protocol: as §2

CTG-0387 colorectal PDX = test: Patient-derived xenograft, tumor growth delay; type: in vivo, NSG mice; settings: PDX CTG-0387 (Colorectal); every seven days, six doses; median time to 1 cm^3 vs control
Protocol: as §2

CTG-0406 colorectal PDX = test: Patient-derived xenograft, tumor growth delay; type: in vivo, NSG mice; settings: PDX CTG-0406 (Colorectal); every seven days, six doses; median time to 1 cm^3 vs control
Protocol: as §2

CTG-0419 colorectal PDX = test: Patient-derived xenograft, tumor growth delay; type: in vivo, NSG mice; settings: PDX CTG-0419 (Colorectal); every seven days, six doses; median time to 1 cm^3 vs control
Protocol: as §2

CTG-0062 colorectal PDX = test: Patient-derived xenograft, tumor growth delay; type: in vivo, NSG mice; settings: PDX CTG-0062 (Colorectal); every seven days, six doses; median time to 1 cm^3 vs control
Protocol: as §2

CTG-0170 NSCL PDX = test: Patient-derived xenograft, tumor growth delay; type: in vivo, NSG mice; settings: PDX CTG-0170 (NSCL); every seven days, six doses; median time to 1 cm^3 vs control
Protocol: as §2

CTG-0058 colorectal PDX = test: Patient-derived xenograft, tumor growth delay; type: in vivo, NSG mice; settings: PDX CTG-0058 (Colorectal); every seven days, six doses; median time to 1 cm^3 vs control
Protocol: as §2

NCI-H820 = test: Cytotoxicity assay (CellTiter-Glo, 6 days); type: cell-based, human; settings: NCI-H820 lung cancer; relative to untreated control at ≤1 μg/mL in a six day proliferation
Protocol: Tumor cells were plated at 2000-5000 cells/well in 180 μL growth medium containing 10% FBS in 96-well plates, and cultured at 37° C. in a humidified incubator with 5% C02. The following day, titrations of antibodies or ADCs in 20 μL were added and cells were incubated for 6 days. Cell viability was determined using a CellTiter-Glo Luminescent Cell Viability Assay (Promega) according to the manufacturer's instructions.
Tumor cells were plated at 2000-5000 cells/well in 180 μL growth medium containing 10% FBS in 96-well plates, and cultured at 37° C. in a humidified incubator with 5% C02. The following day, titrations of ADCs in 20 μL were added and cells were incubated for 6 days. Cell viability was determined using a CellTiter-Glo Luminescent Cell Viability Assay (Promega) according to the manufacturer's instructions.

[2] = system: LG1049 patient-derived xenograft; test: NSCLC patient-derived xenograft, Kaplan-Meier; type: in vivo, NSG mice; settings: ABBV-399 every four days x6, ABT-700 every seven days x6, FIGS. 10A-10B
Description: Tumor fragments of 3 to 5 mm^3 at passage 3 (P3) were implanted subcutaneously in the right rear flank of NSG mice (The Jackson Laboratory) with a trochar. For all groups, tumor volumes were plotted only for the duration that allowed the full set of animal to remain on study. If animals had to be taken off study, the remaining animals were monitored for tumor growth until they reached defined end-points. Efficacy is depicted on a Kaplan-Meier plot for (A) LG0703 and (B) LG1049 models as fractions reaching the indicated tumors volumes following therapy.

[3] = system: Hs746T gastric cancer xenografts; test: Hs746T xenograft efficacy
Protocol: Female SCID, SCID-Beige and nude mice were obtained from Charles River (Wilmington, Mass.) and housed at ten mice per cage. The body weight upon arrival was 20-22 g. Food and water were available ad libitum. Mice were acclimated to the animal facilities for a period of at least one week prior to commencement of experiments. Animals were tested in the light phase of a 12-hr light: 12-hr dark schedule (lights on at 06:00 hours).
Tumor volumes are depicted as mean±S.E.M.

cMet+ NSCLC = test: Phase 1 monotherapy in cMet+ NSCLC, best response; type: in vivo, human
Protocol: A dose of 2.7 mg/kg was chosen for dose-expansion based primarily on safety and tolerability. For enrollment in this phase of the study, NSCLC subjects were screened for cMet overexpression using an IHC assay utilizing the CONFIRM anti-total cMet (SP44) Rabbit Monoclonal Primary Antibody kit purchased from Ventana (REF #790-4430). Tissue samples were scored by determining the percentages of target tissue cells staining at various intensity levels of low to high, i.e. IHC score of 0, 1+, 2+ or 3+ or an H-score of 0 to 149, 150-224, or 225-300. The scoring can be done either manually or via the aid of a computer. Details of the IHC assay and scoring are described in Example 17.

[4] = system: NCI-H441 lung cancer xenografts; test: NCI-H441 xenograft efficacy; type: in vivo, mice; settings: both every four days, six doses; dose-dependent; FIG. 11B
Description: Food and water were available ad libitum.
Each experimental group included 8-10 animals.

ABBV-399: ADC comprised of the cMet targeting antibody ABT-700 conjugated to MMAE through a valine citrulline (vc) linker
response [1]: partial responses
response (NSCLC adenocarcinoma; four patients, 2.7 mg/kg Q3W and erlotinib): partial responses
response (NSCLC adenocarcinoma; two patients, once every two weeks): either a partial response or a complete response
TGD (%) tumor growth delay (CTG-0363 NSCL PDX): 0%
TGD (%) tumor growth delay (CTG-0084 colorectal PDX): 0%
TGD (%) tumor growth delay (CTG-0159 NSCL PDX): 288%
TGD (%) tumor growth delay (CTG-0115 colorectal PDX): 114%
TGD (%) tumor growth delay (CTG-0796 colorectal PDX): 78%
TGD (%) tumor growth delay (CTG-0387 colorectal PDX): 0%
TGD (%) tumor growth delay (CTG-0406 colorectal PDX): 0%
TGD (%) tumor growth delay (CTG-0419 colorectal PDX): 54%
TGD (%) tumor growth delay (CTG-0062 colorectal PDX): 0%
TGD (%) tumor growth delay (CTG-0170 NSCL PDX): 336%
TGD (%) tumor growth delay (CTG-0058 colorectal PDX): 71%
Maximal Killing (NCI-H820): 87%
in vivo activity, comparison [2]: more active than ABT-700 alone
in vivo activity, comparison ([3]; ABT-700 every seven days, ABBV-399 every four days, dose-dependent, FIG. 11A): more active than ABT-700 alone
tumor response ([3]; tumors relapsed after ABT-700 treatment, FIG. 12A): regression
radiographic progressive disease (cMet+ NSCLC; 2/16 treated patients): 12.5%
partial responses (cMet+ NSCLC; 3/16 treated patients): 19%
stable disease (cMet+ NSCLC; 6/16 treated patients): 37.5%
in vivo activity, comparison [4]: more active than ABT-700 alone
